# Numbers after ± are expanded uncertainties.
# Assay: xn = mol fraction of the nth substance listed
# Details: for surface tension liquid-gas: wilhelmi plate; for viscosity / speed of sound / mass density: 100 kPa, Liquid; for viscosity: Capillary tube (Ostwald / Ubbelohde) method; for speed of sound: Frequency=3 MHz, Sing-around technique in a fixed-path interferometer; for mass density: Vibrating tube method
structure (smiles),measurement,setting,value
CN(C)CCN [2-dimethylamino-1-ethylamine] + O,surface tension liquid-gas,"313.15 K, x1 = 0.1002",41.3 ± 0.7 mN/m
same,surface tension liquid-gas,"313.15 K, x1 = 0.2",35.2 ± 0.6 mN/m
same,surface tension liquid-gas,"313.15 K, x1 = 0.3002",31.2 ± 0.6 mN/m
same,surface tension liquid-gas,"313.15 K, x1 = 0.3996",28.9 ± 0.6 mN/m
same,surface tension liquid-gas,"313.15 K, x1 = 0.5035",27.8 ± 0.6 mN/m
same,surface tension liquid-gas,"313.15 K, x1 = 0.5995",27 ± 0.6 mN/m
same,surface tension liquid-gas,"313.15 K, x1 = 0.7007",26.3 ± 0.6 mN/m
same,surface tension liquid-gas,"313.15 K, x1 = 0.8002",25.8 ± 0.6 mN/m
same,surface tension liquid-gas,"313.15 K, x1 = 0.8999",25.3 ± 0.6 mN/m
same,surface tension liquid-gas,"313.15 K, x1 = 1",25.2 ± 0.7 mN/m
same,viscosity,"313.15 K, x1 = 0.1002",2.891 ± 0.037 mPa·s
same,viscosity,"313.15 K, x1 = 0.2",4.689 ± 0.031 mPa·s
same,viscosity,"313.15 K, x1 = 0.3002",4.105 ± 0.031 mPa·s
same,viscosity,"313.15 K, x1 = 0.3996",2.884 ± 0.027 mPa·s
same,viscosity,"313.15 K, x1 = 0.5035",2.019 ± 0.019 mPa·s
same,viscosity,"313.15 K, x1 = 0.5995",1.552 ± 0.015 mPa·s
same,viscosity,"313.15 K, x1 = 0.7007",1.192 ± 0.012 mPa·s
same,viscosity,"313.15 K, x1 = 0.8002",0.937 ± 0.01 mPa·s
same,viscosity,"313.15 K, x1 = 0.8999",0.773 ± 0.009 mPa·s
same,viscosity,"313.15 K, x1 = 1",0.693 ± 0.008 mPa·s
same,speed of sound,"313.15 K, x1 = 0.1002",1712.8 ± 1.8 m/s
same,speed of sound,"313.15 K, x1 = 0.2",1636.1 ± 2.2 m/s
same,speed of sound,"313.15 K, x1 = 0.3002",1531.3 ± 2.3 m/s
same,speed of sound,"313.15 K, x1 = 0.3996",1443.1 ± 2.1 m/s
same,speed of sound,"313.15 K, x1 = 0.5035",1381.8 ± 2.1 m/s
same,speed of sound,"313.15 K, x1 = 0.5995",1343.3 ± 2.1 m/s
same,speed of sound,"313.15 K, x1 = 0.7007",1310.3 ± 2.2 m/s
same,speed of sound,"313.15 K, x1 = 0.8002",1266.2 ± 2.3 m/s
same,speed of sound,"313.15 K, x1 = 0.8999",1249.2 ± 2.4 m/s
same,speed of sound,"313.15 K, x1 = 1",1239 ± 2.5 m/s
same,mass density,"313.15 K, x1 = 0.1002",963 ± 2 kg/m3
same,mass density,"313.15 K, x1 = 0.2",935 ± 2 kg/m3
same,mass density,"313.15 K, x1 = 0.3002",901 ± 2 kg/m3
same,mass density,"313.15 K, x1 = 0.3996",877 ± 2 kg/m3
same,mass density,"313.15 K, x1 = 0.5035",856 ± 2 kg/m3
same,mass density,"313.15 K, x1 = 0.5995",840 ± 2 kg/m3
same,mass density,"313.15 K, x1 = 0.7007",826 ± 2 kg/m3
same,mass density,"313.15 K, x1 = 0.8002",814 ± 2 kg/m3
same,mass density,"313.15 K, x1 = 0.8999",806 ± 2 kg/m3
same,mass density,"313.15 K, x1 = 1",801 ± 2 kg/m3
same,surface tension liquid-gas,"323.15 K, x1 = 0.1002",40.4 ± 0.7 mN/m
same,surface tension liquid-gas,"323.15 K, x1 = 0.2",34.3 ± 0.6 mN/m
same,surface tension liquid-gas,"323.15 K, x1 = 0.3002",30.6 ± 0.6 mN/m
same,surface tension liquid-gas,"323.15 K, x1 = 0.3996",27.9 ± 0.6 mN/m
same,surface tension liquid-gas,"323.15 K, x1 = 0.5035",27.1 ± 0.6 mN/m
same,surface tension liquid-gas,"323.15 K, x1 = 0.5995",26.4 ± 0.6 mN/m
same,surface tension liquid-gas,"323.15 K, x1 = 0.7007",25.7 ± 0.6 mN/m
same,surface tension liquid-gas,"323.15 K, x1 = 0.8002",25.2 ± 0.6 mN/m
same,surface tension liquid-gas,"323.15 K, x1 = 0.8999",24.7 ± 0.6 mN/m
same,surface tension liquid-gas,"323.15 K, x1 = 1",24.5 ± 0.7 mN/m
same,viscosity,"323.15 K, x1 = 0.1002",2.069 ± 0.025 mPa·s
same,viscosity,"323.15 K, x1 = 0.2",3.179 ± 0.021 mPa·s
same,viscosity,"323.15 K, x1 = 0.3002",2.853 ± 0.021 mPa·s
same,viscosity,"323.15 K, x1 = 0.3996",2.105 ± 0.019 mPa·s
same,viscosity,"323.15 K, x1 = 0.5035",1.519 ± 0.014 mPa·s
same,viscosity,"323.15 K, x1 = 0.5995",1.201 ± 0.011 mPa·s
same,viscosity,"323.15 K, x1 = 0.7007",0.967 ± 0.01 mPa·s
same,viscosity,"323.15 K, x1 = 0.8002",0.804 ± 0.009 mPa·s
same,viscosity,"323.15 K, x1 = 0.8999",0.686 ± 0.008 mPa·s
same,viscosity,"323.15 K, x1 = 1",0.596 ± 0.007 mPa·s
same,speed of sound,"323.15 K, x1 = 0.1002",1682 ± 1.7 m/s
same,speed of sound,"323.15 K, x1 = 0.2",1598.4 ± 2.3 m/s
same,speed of sound,"323.15 K, x1 = 0.3002",1493.1 ± 2.3 m/s
same,speed of sound,"323.15 K, x1 = 0.3996",1411.3 ± 2.1 m/s
same,speed of sound,"323.15 K, x1 = 0.5035",1343.5 ± 2.1 m/s
same,speed of sound,"323.15 K, x1 = 0.5995",1305.1 ± 2.1 m/s
same,speed of sound,"323.15 K, x1 = 0.7007",1271.7 ± 2.2 m/s
same,speed of sound,"323.15 K, x1 = 0.8002",1227 ± 2.3 m/s
same,speed of sound,"323.15 K, x1 = 0.8999",1209.1 ± 2.4 m/s
same,speed of sound,"323.15 K, x1 = 1",1199.3 ± 2.5 m/s
same,mass density,"323.15 K, x1 = 0.1002",955 ± 2 kg/m3
same,mass density,"323.15 K, x1 = 0.2",926 ± 2 kg/m3
same,mass density,"323.15 K, x1 = 0.3002",893 ± 2 kg/m3
same,mass density,"323.15 K, x1 = 0.3996",868 ± 2 kg/m3
same,mass density,"323.15 K, x1 = 0.5035",847 ± 2 kg/m3
same,mass density,"323.15 K, x1 = 0.5995",831 ± 2 kg/m3
same,mass density,"323.15 K, x1 = 0.7007",817 ± 2 kg/m3
same,mass density,"323.15 K, x1 = 0.8002",806 ± 2 kg/m3
same,mass density,"323.15 K, x1 = 0.8999",797 ± 2 kg/m3
same,mass density,"323.15 K, x1 = 1",791 ± 2 kg/m3
